For orientation: IC50 means the point on the concentration scale where inhibition reaches its midpoint. As usually defined, the EC50 is the concentration needed to bring the measured effect to its halfway point. In general, AC50 refers to the concentration giving half of the maximal activity seen.

The target of test [1] is NACHT, LRR and PYD domains-containing protein 3 (Homo sapiens, UniProt Q96P20). Nature of the test: NALP3 inhibitors in yeast, dose response, luminescent (AID 488799). The format is functional.
Chain of NACHT, LRR and PYD domains-containing protein 3 (Q96P20 whole entry, the tested form may be a part): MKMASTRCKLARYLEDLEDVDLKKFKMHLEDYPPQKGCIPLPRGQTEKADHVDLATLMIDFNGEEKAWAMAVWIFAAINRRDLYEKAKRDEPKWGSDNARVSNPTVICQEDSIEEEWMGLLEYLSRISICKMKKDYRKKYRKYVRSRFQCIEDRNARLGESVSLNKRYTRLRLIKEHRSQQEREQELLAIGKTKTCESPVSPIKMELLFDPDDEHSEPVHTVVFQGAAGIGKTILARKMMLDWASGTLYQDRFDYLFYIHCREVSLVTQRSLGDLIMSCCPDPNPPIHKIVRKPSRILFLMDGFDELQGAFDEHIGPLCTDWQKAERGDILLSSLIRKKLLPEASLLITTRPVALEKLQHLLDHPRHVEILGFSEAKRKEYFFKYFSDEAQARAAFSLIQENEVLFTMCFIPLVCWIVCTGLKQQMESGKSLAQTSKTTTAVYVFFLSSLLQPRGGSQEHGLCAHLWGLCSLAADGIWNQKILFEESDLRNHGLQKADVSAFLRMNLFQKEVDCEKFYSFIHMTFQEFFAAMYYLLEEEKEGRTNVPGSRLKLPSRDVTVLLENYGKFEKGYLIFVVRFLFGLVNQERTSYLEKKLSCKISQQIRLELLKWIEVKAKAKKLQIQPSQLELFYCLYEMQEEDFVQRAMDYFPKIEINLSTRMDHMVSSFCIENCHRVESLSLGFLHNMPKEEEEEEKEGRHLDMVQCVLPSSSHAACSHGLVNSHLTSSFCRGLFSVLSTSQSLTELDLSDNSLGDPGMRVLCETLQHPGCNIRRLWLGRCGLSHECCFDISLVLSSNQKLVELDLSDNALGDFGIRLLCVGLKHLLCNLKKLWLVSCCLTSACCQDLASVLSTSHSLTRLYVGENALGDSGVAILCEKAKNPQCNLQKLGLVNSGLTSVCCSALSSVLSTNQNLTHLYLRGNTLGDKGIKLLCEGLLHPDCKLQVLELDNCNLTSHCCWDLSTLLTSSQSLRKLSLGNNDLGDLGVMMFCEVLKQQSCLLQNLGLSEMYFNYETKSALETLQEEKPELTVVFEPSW
Test [2] concerns the target T1, SUMO-activating enzyme (Homo sapiens, UniProt Q9UBT2). Nature of the test: SUMOylation inhibitor hit validation, confirmation, SUMOylation inhibitor project, biochemical, AlphaScreen (AID 2018). The class given is functional. In general terms: Alpha assays give light when donor and acceptor beads are brought close together.
For test [3], the target named is T1, SUMO-activating enzyme. Nature of the test: inhibitors of in vitro SUMOylation cascade, primary screen, biochemical, HTRF, uHTS (AID 2006). The class given is protein-complex assay. Background: In TR-FRET formats the signal depends on donor and acceptor labels being close together.
A short description of test [4]: growth suppression of PTEN-null colon cells, dose response, cell-based, HCT116 PTEN knockout (AID 1047).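 Note: HCT116 colon tumor cells with PTEN knocked out; cells exposed to compound for 60 hours before readout; potency for loss of cell viability measured by luminescence.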 The class given is functional.
Test [5] is described as follows: growth suppression of beta-catenin-knockout colon cells, dose response, cell-based, HCT116, human colon tumor (AID 1045).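 Note: HCT116 colon tumor cells with beta catenin knocked out; cells exposed to compound for 60 hours.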 The format is functional.
The next test has as its target Bcl-2-like protein 10 (Homo sapiens, UniProt Q9HD36). Nature of the test: displacers of TR3 peptide from Bcl-B, primary screen, selectivity assay for Bfl-1 inhibitor project, biochemical, fluorescence polarization, FITC-TR3 peptide (AID 748).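 Note: fluorescence polarization from a fluorescein-labelled TR3 peptide binding purified Bcl-B.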
Test [6] deals with Neurotensin receptor type 1 (Homo sapiens, UniProt P30989). The format is functional.
Chain of Neurotensin receptor type 1 (P30989 whole entry): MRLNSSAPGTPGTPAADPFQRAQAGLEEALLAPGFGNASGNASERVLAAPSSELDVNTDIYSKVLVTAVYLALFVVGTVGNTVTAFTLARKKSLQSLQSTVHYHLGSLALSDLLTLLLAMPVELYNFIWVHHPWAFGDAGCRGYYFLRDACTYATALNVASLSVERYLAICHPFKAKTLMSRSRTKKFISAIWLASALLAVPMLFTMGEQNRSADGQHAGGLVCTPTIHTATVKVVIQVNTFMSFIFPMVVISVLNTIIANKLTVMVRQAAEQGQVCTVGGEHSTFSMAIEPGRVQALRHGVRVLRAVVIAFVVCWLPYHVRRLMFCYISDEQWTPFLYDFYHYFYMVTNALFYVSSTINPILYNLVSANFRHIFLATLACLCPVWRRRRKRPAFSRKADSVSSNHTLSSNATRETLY
A further test concerns the target Galanin receptor type 2 (Homo sapiens, UniProt O43603). Nature of the test: Dose Response cell-based high-throughput screening assay to identify antagonists of galanin receptor 2 (GALR2). [Related pubchem assays: 828, 866 ]. The class given is functional.
Test [7] in a line: cytotoxicity in HEK-293T cells, dose response, cytotoxicity control for BCR NF-kB inhibitor project, luminescence, B-cell screen hits (AID 489021).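 Note: HEK-293T cells carrying an NF-kB luciferase reporter; cells exposed to compound for about 14 hours before viability readout.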 The format is functional, cell-based.
In the next test the test system is INS1. The test is described as follows: beta cell apoptosis inhibitors, cytokine rescue, dose response, luminescence, retest (AID 449756).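 Note: cell death triggered by IL-1 beta plus TNF-alpha plus IFN-gamma mixture; protective hits raise ATP signal compared with cytokine alone wells.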 The format is functional, cell-based. The conditions noted are these: Rattus norvegicus.
The target in another test is T2, Galanin receptor type 3 (Homo sapiens, UniProt O60755).
T2 sequence (O60755 whole entry): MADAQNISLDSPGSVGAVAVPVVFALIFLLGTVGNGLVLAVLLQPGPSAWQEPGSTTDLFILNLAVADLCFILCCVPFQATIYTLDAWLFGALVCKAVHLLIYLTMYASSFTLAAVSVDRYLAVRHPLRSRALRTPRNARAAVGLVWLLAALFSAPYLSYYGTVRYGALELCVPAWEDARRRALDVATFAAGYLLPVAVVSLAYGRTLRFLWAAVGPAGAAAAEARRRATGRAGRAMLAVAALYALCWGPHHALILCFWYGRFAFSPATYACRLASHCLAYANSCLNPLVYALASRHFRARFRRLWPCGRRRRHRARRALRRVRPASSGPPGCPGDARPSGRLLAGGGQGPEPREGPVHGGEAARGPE
Nature of the test: Fluorescence-based cell-based primary high throughput dose response assay to identify antagonists of the Galanin Receptor 3 (GalR3). The format is functional.

The next test is described as follows: cells. The class given is functional, cell-based. Conditions: HEK-CNG.

The source made the active and inactive calls.

T1 sequence (Q9UBE0 whole entry): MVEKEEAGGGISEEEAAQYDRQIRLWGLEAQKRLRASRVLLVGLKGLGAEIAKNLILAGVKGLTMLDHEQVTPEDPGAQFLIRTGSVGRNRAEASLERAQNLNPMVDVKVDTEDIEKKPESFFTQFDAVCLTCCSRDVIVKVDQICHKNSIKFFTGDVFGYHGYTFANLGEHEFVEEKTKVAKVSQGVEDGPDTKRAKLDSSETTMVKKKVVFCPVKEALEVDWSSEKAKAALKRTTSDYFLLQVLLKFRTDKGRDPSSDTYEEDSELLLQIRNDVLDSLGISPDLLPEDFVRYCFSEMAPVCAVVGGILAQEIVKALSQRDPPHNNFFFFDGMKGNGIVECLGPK
T1 sequence (Q9UBT2 whole entry): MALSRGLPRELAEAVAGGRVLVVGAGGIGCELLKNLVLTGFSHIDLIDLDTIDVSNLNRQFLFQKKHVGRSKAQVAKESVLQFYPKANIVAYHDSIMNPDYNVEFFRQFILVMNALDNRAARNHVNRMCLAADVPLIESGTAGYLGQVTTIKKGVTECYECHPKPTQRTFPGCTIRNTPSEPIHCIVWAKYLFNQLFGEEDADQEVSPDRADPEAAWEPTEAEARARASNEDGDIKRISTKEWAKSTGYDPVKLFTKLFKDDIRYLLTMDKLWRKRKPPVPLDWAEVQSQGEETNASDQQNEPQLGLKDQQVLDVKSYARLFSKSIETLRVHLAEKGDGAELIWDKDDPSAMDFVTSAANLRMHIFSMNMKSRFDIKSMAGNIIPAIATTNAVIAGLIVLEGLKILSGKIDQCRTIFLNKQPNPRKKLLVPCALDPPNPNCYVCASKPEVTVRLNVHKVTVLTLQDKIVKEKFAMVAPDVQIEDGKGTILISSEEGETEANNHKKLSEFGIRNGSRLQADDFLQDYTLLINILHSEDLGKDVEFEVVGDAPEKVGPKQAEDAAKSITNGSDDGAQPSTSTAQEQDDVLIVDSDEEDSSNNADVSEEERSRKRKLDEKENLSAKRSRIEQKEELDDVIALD
Chain of Galanin receptor type 2 (O43603 whole entry): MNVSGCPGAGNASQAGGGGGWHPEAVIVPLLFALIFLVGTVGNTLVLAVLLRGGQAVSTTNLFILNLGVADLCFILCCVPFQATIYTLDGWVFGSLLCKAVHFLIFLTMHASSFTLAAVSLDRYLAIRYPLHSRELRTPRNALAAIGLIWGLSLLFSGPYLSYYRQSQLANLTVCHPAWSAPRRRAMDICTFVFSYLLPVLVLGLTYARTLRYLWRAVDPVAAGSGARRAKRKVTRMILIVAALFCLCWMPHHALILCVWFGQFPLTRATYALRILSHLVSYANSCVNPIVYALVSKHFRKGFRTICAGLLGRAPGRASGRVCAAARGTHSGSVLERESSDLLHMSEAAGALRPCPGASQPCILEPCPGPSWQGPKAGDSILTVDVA
Chain of Bcl-2-like protein 10 (Q9HD36 whole entry): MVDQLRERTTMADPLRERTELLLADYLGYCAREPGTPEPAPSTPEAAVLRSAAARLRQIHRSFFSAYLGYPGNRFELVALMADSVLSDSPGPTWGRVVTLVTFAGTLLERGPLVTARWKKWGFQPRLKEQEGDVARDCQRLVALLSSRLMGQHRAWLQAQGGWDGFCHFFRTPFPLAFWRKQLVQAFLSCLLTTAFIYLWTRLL

Regarding `O=C(Nc1scc(-c2ccccc2)c1C(=O)O)c1ccc(F)cc1`, the IC50 in test [1] is 10.3 µM (active).

`O=C(/C=C/c1ccco1)NC(=S)Nc1cc(-c2nc3ccccc3s2)ccc1Cl`: the concentration for half-maximal inhibition (IC50) was 7.42 µM (active) at SUMO-activating enzyme [2] and 26 µM (active) on SUMO-activating enzyme [3]. Moreover, the results for the EC50 in test [4] and in test [5] were 7.86 µM (active) and 7.24 µM (active), respectively.

Consider `c1ccc(-c2nn3c(Cn4nnc5ccccc54)nnc3s2)nc1`, for which, at Bcl-2-like protein 10, the IC50 was 34.6 µM (active).

With `O=C(/C=C\c1ccccc1OC(=O)c1ccccc1F)c1cc2ccccc2o1`, the EC50 in test [6] was 12 µM (active).

Take `O=S(=O)(NCc1ccncc1)c1ccc(Br)s1`: the IC50 on Galanin receptor type 2 was > 42 µM (not active); in test [7], > 80 µM (inactive); on Galanin receptor type 3 it was 2.06 µM (active). Moreover, in the test on INS1, the concentration at half-maximal activity (AC50) is 2.91 µM (active). Besides, the EC50 in “cells” is > 29.9 µM (inactive).

The values are drawn from ChEMBL document CHEMBL1201862, “PubChem BioAssay data set” (2004).
